Laboratory results: ChEMBL document CHEMBL1142829, “Structure-antioxidant activity relationships of flavonoids isolated from the resinous exudate of Heliotropium sinuatum” (Bioorg Med Chem Lett, 2005)

Assay: Ratio between antioxidant activities determined employing ABTS and DPPH methods

Row | Ratio | SMILES
1 | 125 | COc1cc(OC)c2c(=O)c(OC)c(-c3ccc(O)c(OC)c3)oc2c1
2 | 6.6 | COc1cc(-c2oc3cc(O)cc(OC)c3c(=O)c2OC)ccc1O
3 | 6.8 | COc1c(-c2ccccc2)oc2cc(O)cc(OC)c2c1=O

The next lines start with the compound.

Row | SMILES | Ratio
4 | COc1cc(O)cc2oc(-c3ccccc3)cc(=O)c12 | 170
5 | COc1cc(O)c2c(=O)cc(-c3ccc(O)c(O)c3)oc2c1 | 3.4
6 | COc1cc(O)cc2oc(-c3ccc(O)cc3)cc(=O)c12 | 143
7 | COc1ccc(-c2cc(=O)c3c(OC)cc(O)cc3o2)cc1O | 126
8 | COc1cc(O)cc2oc(-c3ccccc3)c(OC(C)=O)c(=O)c12 | 160
